Reference: article PMC10324308, “Biodegradation of Amphipathic Fluorinated Peptides Reveals a New Bacterial Defluorinating Activity and a New Source of Natural Organofluorine Compounds” (Environmental Science & Technology, 2023)
Where a SMILES comes first, the peptide text is derived from it. [ ]: non-standard residue; d: D form. Abu(4,4,4-F3) = N[C@@H](CC(F)(F)F)C(=O)O; Abu(4,4-F2) = N[C@@H](CC(F)F)C(=O)O; 4Abz = Nc1ccc(C(=O)O)cc1; Abu = CC[C@H](N)C(=O)O

Assays:
β-trypsin (pancreas) = assay: Peptide digestion assay with β-trypsin; type: in vitro ADME; details: after 2 h; 500 μM peptide, trypsin 0.075 μM, 50 mM bis-tris propane + 20 mM CaCl2, pH 8, 37 °C, 300 rpm; HPLC (DAD-280 nm); triplicates
Protocol: (§1) Freeze-dried peptides AbuK16, MfeGlyK16, DfeGlyK16, and TfeGlyK16 were dissolved in 100 μL of buffer (50 mM bis-tris propane + 20 mM CaCl2, pH 8) to a final concentration of 500 μM. The peptides were incubated with different proteolytic enzymes (10 μL in buffer): trypsin (0.075 μM), elastase (0.45 μM), proteinase K (0.075 μM), and bromelain (4.5 μM). The experiments were incubated at either 37 °C (trypsin and proteinase K) or 30 °C (elastase and bromelain) in a Thriller thermoshaker-incubator (VWR International, Radnor, PA, USA) with shaking at 300 rpm. Aliquots (15 μL) were taken at fixed time points and quenched with 90 μL of a solution of 30% acetic acid in water containing 133 μM Ac-[4]Abz-Gly-OH as a reference. Peptide degradation was monitored by high-performance liquid chromatography (HPLC) using a Hitachi Primaide UV-HPLC system (VWR/Hitachi, Darmstadt, Germany). A Kinetex RP-C18 ([…], 100 Å, 250 × 4.6 mm, Phenomenex, USA) column and a SecurityGuard Cartridge Kit equipped with a C18 cartridge (4 × 3.0 mm, Phenomenex, USA) as a pre-column was used. The mobile phases employed were 0.1% aqueous […] (TFA) (solvent A) and acetonitrile + 0.1% TFA (solvent B). The solvent conditions for analysis were as follows: 0–5 min, 5% B; 5–20 min, 5–90% B; 20–23 min, 90–100% B; 23–25 min, 100% B; 25–27 min, 100–5% B; and 27–30 min, 5% B. In all cases, the peaks corresponding to each peptide sample (full-length peptides) and the reference sample were integrated and used to determine the amount of the substrate still present in solution. The content of starting material after 5 min was termed as absolute amount for simplicity. All experiments were performed in triplicates, and error bars were obtained as standard deviations of measurements.
(§2) Figure 2 Proteolytic digestion of AbuK16, MfeGlyK16, DfeGlyK16, and TfeGlyK16 by the serine proteases β-trypsin, elastase, proteinase K, and bromelain (pineapple stem) in 50 mM bis-tris propane + 20 mM CaCl2, pH 8, at 37 °C (β-trypsin and proteinase K) or 30 °C (elastase and bromelain). Real-time detection of peptide proteolysis and calculation of remaining peptide amounts were accomplished by HPLC analysis (DAD-280 nm).

[1] = target: T1, bromelain (pineapple stem) (Ananas comosus, UniProt P14518); assay: Peptide digestion assay with bromelain; type: in vitro ADME; details: 500 μM peptide, bromelain 4.5 μM, 50 mM bis-tris propane + 20 mM CaCl2, pH 8, 30 °C, HPLC (DAD-280 nm); for digestion by bromelain: 300 rpm, triplicates
T1 construct: purchased Sigma-Aldrich (Steinheim, Germany); host or cells: pineapple stem
T1 sequence (P14518 1-212): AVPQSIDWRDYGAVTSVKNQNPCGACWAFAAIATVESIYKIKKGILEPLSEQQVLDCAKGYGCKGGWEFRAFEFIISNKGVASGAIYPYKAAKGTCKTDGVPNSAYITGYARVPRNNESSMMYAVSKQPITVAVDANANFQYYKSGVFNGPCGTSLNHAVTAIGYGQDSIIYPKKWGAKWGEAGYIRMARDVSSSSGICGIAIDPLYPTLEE
Protocol: as §1, §2

elastase (pancreas) = target: T2, elastase (pancreas) (Sus scrofa, UniProt P00772); assay: Peptide digestion assay with elastase; type: in vitro ADME; details: after 4 h; 500 μM peptide, elastase 0.45 μM, 50 mM bis-tris propane + 20 mM CaCl2, pH 8, 30 °C, 300 rpm; HPLC (DAD-280 nm); triplicates
T2 construct: purchased Sigma-Aldrich (Steinheim, Germany); host or cells: pancreas
T2 sequence (P00772 27-266): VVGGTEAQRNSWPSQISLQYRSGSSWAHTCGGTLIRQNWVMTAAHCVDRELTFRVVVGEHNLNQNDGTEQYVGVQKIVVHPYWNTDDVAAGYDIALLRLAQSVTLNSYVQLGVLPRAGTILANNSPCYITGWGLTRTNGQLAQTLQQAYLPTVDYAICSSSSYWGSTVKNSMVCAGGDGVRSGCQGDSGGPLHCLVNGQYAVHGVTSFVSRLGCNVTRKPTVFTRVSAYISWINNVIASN
Protocol: as §1, with “The solvent conditions for analysis were as follows: 0–5 min, 5% B; 5–20 min, 5–90% B; 20–23 min, 90–100% B; 23–25 min, 100% B; 25–27 min, 100–5% B; and 27–30 min, 5% B. In all cases, the peaks corresponding to each peptide sample (full-length peptides) and the reference sample were integrated and used to determine the amount of the substrate still present in solution. The content of starting material after 5 min was termed as absolute amount for simplicity. All experiments were performed in triplicates, and error bars were obtained as standard deviations of measurements.” left out

proteinase K = target: T3, proteinase K (Parengyodontium album, UniProt P06873); assay: Peptide digestion assay with proteinase K; type: in vitro ADME, Tritirachium album; details: 500 μM peptide, proteinase K 0.075 μM, 50 mM bis-tris propane + 20 mM CaCl2, pH 8, 37 °C, HPLC (DAD-280 nm), triplicates; for proteolytic stability against proteinase K: after 4 h, 300 rpm
T3 construct: purchased Sigma-Aldrich (Steinheim, Germany)
T3 sequence (P06873 106-384): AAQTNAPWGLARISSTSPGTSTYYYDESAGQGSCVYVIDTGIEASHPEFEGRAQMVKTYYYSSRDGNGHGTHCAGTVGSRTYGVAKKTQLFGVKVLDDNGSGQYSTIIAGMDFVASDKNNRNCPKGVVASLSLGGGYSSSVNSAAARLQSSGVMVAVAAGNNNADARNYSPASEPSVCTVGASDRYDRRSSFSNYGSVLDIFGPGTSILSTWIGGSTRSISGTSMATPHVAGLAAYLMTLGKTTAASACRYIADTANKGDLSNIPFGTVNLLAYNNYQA
Protocol: as §1
Figure 2 Proteolytic digestion of AbuK16, MfeGlyK16, DfeGlyK16, and TfeGlyK16 by the serine proteases β-trypsin, elastase, proteinase K, and bromelain (pineapple stem) in 50 mM bis-tris propane + 20 mM CaCl2, pH 8, at 37 °C (β-trypsin and proteinase K) or 30 °C (elastase and bromelain). […]

Structure (SMILES)	remaining full-length peptide after digestion by β-trypsin (β-trypsin (pancreas))	digestion by bromelain [1]	remaining full-length peptide after digestion by elastase (elastase (pancreas))	proteolytic stability against proteinase K (proteinase K)	digestion by proteinase K (proteinase K; within 24 h)	remaining peptide after digestion by bromelain ([1]; after 3 days incubation)
CC[C@H](NC(C)=O)C(=O)N[C@@H](CCCCN)C(=O)N[C@@H](CC)C(=O)N[C@@H](CCCCN)C(=O)N[C@@H](CC)C(=O)N[C@@H](CCCCN)C(=O)N[C@@H](CC)C(=O)N[C@@H](CCCCN)C(=O)N[C@@H](CC)C(=O)N[C@@H](CCCCN)C(=O)N[C@@H](CC)C(=O)N[C@@H](CCCCN)C(=O)N[C@@H](CC)C(=O)N[C@@H](CCCCN)C(=O)N[C@@H](CC)C(=O)N[C@@H](CCCCN)C(=O)Nc1ccc(C(N)=O)cc1 [AbuK16, Ac-(Abu-Lys)8-[4]Abz-NH2] (Ac-[Abu]K[Abu]K[Abu]K[Abu]K[Abu]K[Abu]K[Abu]K[Abu]K[4Abz]-NH2)	comparably higher amounts of peptide were detected	digested				
CC(=O)N[C@@H](CC(F)F)C(=O)N[C@@H](CCCCN)C(=O)N[C@@H](CC(F)F)C(=O)N[C@@H](CCCCN)C(=O)N[C@@H](CC(F)F)C(=O)N[C@@H](CCCCN)C(=O)N[C@@H](CC(F)F)C(=O)N[C@@H](CCCCN)C(=O)N[C@@H](CC(F)F)C(=O)N[C@@H](CCCCN)C(=O)N[C@@H](CC(F)F)C(=O)N[C@@H](CCCCN)C(=O)N[C@@H](CC(F)F)C(=O)N[C@@H](CCCCN)C(=O)N[C@@H](CC(F)F)C(=O)N[C@@H](CCCCN)C(=O)Nc1ccc(C(N)=O)cc1 [DfeGlyK16, Ac-(DfeGly-Lys)8-[4]Abz-NH2] (Ac-[Abu(4,4-F2)]K[Abu(4,4-F2)]K[Abu(4,4-F2)]K[Abu(4,4-F2)]K[Abu(4,4-F2)]K[Abu(4,4-F2)]K[Abu(4,4-F2)]K[Abu(4,4-F2)]K[4Abz]-NH2)	mostly consumed	digested	lower amounts of DfeGlyK16 and TfeGlyK16 detected than AbuK16 and MfeGlyK16			
CC(=O)N[C@@H](CCF)C(=O)N[C@@H](CCCCN)C(=O)N[C@@H](CCF)C(=O)N[C@@H](CCCCN)C(=O)N[C@@H](CCF)C(=O)N[C@@H](CCCCN)C(=O)N[C@@H](CCF)C(=O)N[C@@H](CCCCN)C(=O)N[C@@H](CCF)C(=O)N[C@@H](CCCCN)C(=O)N[C@@H](CCF)C(=O)N[C@@H](CCCCN)C(=O)N[C@@H](CCF)C(=O)N[C@@H](CCCCN)C(=O)N[C@@H](CCF)C(=O)N[C@@H](CCCCN)C(=O)Nc1ccc(C(N)=O)cc1 [MfeGlyK16, Ac-(MfeGly-Lys)8-[4]Abz-NH2]	comparably higher amounts of peptide were detected	digested		higher proteolytic stability of MfeGlyK16 than that for AbuK16 and DfeGlyK16		
CC(=O)N[C@@H](CC(F)(F)F)C(=O)N[C@@H](CCCCN)C(=O)N[C@@H](CC(F)(F)F)C(=O)N[C@@H](CCCCN)C(=O)N[C@@H](CC(F)(F)F)C(=O)N[C@@H](CCCCN)C(=O)N[C@@H](CC(F)(F)F)C(=O)N[C@@H](CCCCN)C(=O)N[C@@H](CC(F)(F)F)C(=O)N[C@@H](CCCCN)C(=O)N[C@@H](CC(F)(F)F)C(=O)N[C@@H](CCCCN)C(=O)N[C@@H](CC(F)(F)F)C(=O)N[C@@H](CCCCN)C(=O)N[C@@H](CC(F)(F)F)C(=O)N[C@@H](CCCCN)C(=O)Nc1ccc(C(N)=O)cc1 [TfeGlyK16, Ac-(TfeGly-Lys)8-[4]Abz-NH2] (Ac-[Abu(4,4,4-F3)]K[Abu(4,4,4-F3)]K[Abu(4,4,4-F3)]K[Abu(4,4,4-F3)]K[Abu(4,4,4-F3)]K[Abu(4,4,4-F3)]K[Abu(4,4,4-F3)]K[Abu(4,4,4-F3)]K[4Abz]-NH2)	mostly consumed	resistant to this protease	lower amounts of DfeGlyK16 and TfeGlyK16 detected than AbuK16 and MfeGlyK16	pronounced stability	largely digested	noticeable amounts of this peptide were still present
